Results reported in patent US20180042943A1, “METHODS FOR MODULATING BONE DENSITY” (Intercept Pharmaceuticals, Inc., priority 2015, published 2018).
“Also recorded” adds a separate entry of the source.

Experiments:
[1] = DEXA scan of the femoral neck (T-score, Z-score, BMD) in PBC subjects, 12 months OCA or placebo; format: in vivo, human; settings: for Femoral Neck Scan: Bone Mineral Density, Change From Baseline, Mean / Femoral Neck Scan: Bone Mineral Density, Change From Baseline, Median / Femoral Neck Scan: Bone Mineral Density, Result, Mean / Femoral Neck Scan: Bone Mineral Density, Result, Median / Femoral Neck Scan: T-Score, Change From Baseline, Mean / Femoral Neck Scan: T-Score, Change From Baseline, Median / Femoral Neck Scan: T-Score, Result, Mean / Femoral Neck Scan: T-Score, Result, Median / Femoral Neck Scan: Z-Score, Change From Baseline, Mean / Femoral Neck Scan: Z-Score, Change From Baseline, Median / Femoral Neck Scan: Z-Score, Result, Mean / Femoral Neck Scan: Z-Score, Result, Median / Femoral Neck Scan: Bone Mineral Density, Change From Baseline, LS Mean / Femoral Neck Scan: Bone Mineral Density, Change From Baseline, OCA - Placebo mean difference / Femoral Neck Scan: T-Score, Change From Baseline, LS Mean / Femoral Neck Scan: T-Score, Change From Baseline, OCA - Placebo mean difference / Femoral Neck Scan: Z-Score, Change From Baseline, LS Mean / Femoral Neck Scan: Z-Score, Change From Baseline, OCA - Placebo mean difference: orally once daily, DB Month 12, subjects with PBC; for Femoral Neck Scan: Bone Mineral Density, Change From Baseline, LS Mean / Femoral Neck Scan: Bone Mineral Density, Change From Baseline, OCA - Placebo mean difference / Femoral Neck Scan: T-Score, Change From Baseline, LS Mean / Femoral Neck Scan: T-Score, Change From Baseline, OCA - Placebo mean difference / Femoral Neck Scan: Z-Score, Change From Baseline, LS Mean / Femoral Neck Scan: Z-Score, Change From Baseline, OCA - Placebo mean difference: ANCOVA
Experimental: (§1) PBC patients are randomized to three groups: (a) placebo (PCB), (b) 10 mg OCA, or (c) 5 mg (month 0-6) titrating to 10 mg (month 7-12) OCA. Study medication is administered orally, once daily for 12 months. For patients under pretreatment ursodeoxycholic acid (UDCA) treatment, the pre-treatment dose of UDCA is continued throughout their treatment. Bone density is measured by DEXA scans. DEXA scans of the lumbar spine and femoral neck are conducted at Day 0 and Month 12. Additional measurement may be conducted after Month 12 (e.g., annually after Month 12) as necessary and appropriate. The timing of the DEXA scans is not critical, and may be conducted±2 weeks. […] Subjects with PBC±UDCA (if taking UDCA, patients were maintained on a stable dose) with ALP≧1.67×ULN or bilirubin<2×ULN were randomized to placebo (PBO), OCA 5 or 10 mg for 12 months. Subjects on 5 mg were titrated to 10 mg after 6 months (OCA Titration) based on clinical response and tolerability. Dual-emission X-ray absorptiometry (DEXA) scan was used to assess BMD in a subset of subjects prior to and following 12 months of OCA or placebo treatment. Changes from baseline at Month 12 were analyzed using an ANCOVA model with baseline values as a covariate. Osteopenia and osteoporosis were based on WHO thresholds: T score −1.0 to ≦−2.5 […].

[2] = DEXA scan of the lumbar spine (T-score, Z-score, BMD) in PBC subjects, 12 months OCA or placebo; format: in vivo, human; settings: for Lumbar Spine Scan: Bone Mineral Density, Change From Baseline, Mean / Lumbar Spine Scan: Bone Mineral Density, Change From Baseline, Median / Lumbar Spine Scan: Bone Mineral Density, Result, Mean / Lumbar Spine Scan: Bone Mineral Density, Result, Median / Lumbar Spine Scan: T-Score, Change From Baseline, Mean / Lumbar Spine Scan: T-Score, Change From Baseline, Median / Lumbar Spine Scan: T-Score, Result, Mean / Lumbar Spine Scan: T-Score, Result, Median / Lumbar Spine Scan: Z-Score, Change From Baseline, Mean / Lumbar Spine Scan: Z-Score, Change From Baseline, Median / Lumbar Spine Scan: Z-Score, Result, Mean / Lumbar Spine Scan: Z-Score, Result, Median / Lumbar Spine Scan: Bone Mineral Density, Change From Baseline, LS Mean / Lumbar Spine Scan: Bone Mineral Density, Change From Baseline, OCA - Placebo mean difference / Lumbar Spine Scan: T-Score, Change From Baseline, LS Mean / Lumbar Spine Scan: T-Score, Change From Baseline, OCA - Placebo mean difference / Lumbar Spine Scan: Z-Score, Change From Baseline, LS Mean / Lumbar Spine Scan: Z-Score, Change From Baseline, OCA - Placebo mean difference: orally once daily, DB Month 12, subjects with PBC; for Lumbar Spine Scan: Bone Mineral Density, Change From Baseline, LS Mean / Lumbar Spine Scan: Bone Mineral Density, Change From Baseline, OCA - Placebo mean difference / Lumbar Spine Scan: T-Score, Change From Baseline, LS Mean / Lumbar Spine Scan: T-Score, Change From Baseline, OCA - Placebo mean difference / Lumbar Spine Scan: Z-Score, Change From Baseline, LS Mean / Lumbar Spine Scan: Z-Score, Change From Baseline, OCA - Placebo mean difference: ANCOVA
Experimental: as §1

[3] = Titration OCA (5 mg, titrated to 10 mg after 6 months)

With `CC[C@H]1[C@@H](O)[C@@H]2[C@H](CC[C@]3(C)[C@@H]([C@H](C)CCC(=O)O)CC[C@@H]23)[C@@]2(C)CC[C@@H](O)C[C@@H]12` [OCA, 3α,7α-dihydroxy-6α-ethyl-5β-cholan-24-oic acid] the “Femoral Neck Scan: Bone Mineral Density, Change From Baseline, Mean” value ([1]; 10 mg OCA) was −0.034 g/cm^2, the “Femoral Neck Scan: Bone Mineral Density, Change From Baseline, Median” value ([1]; 10 mg OCA) was −0.018 g/cm^2 and the “Femoral Neck Scan: Bone Mineral Density, Result, Mean” value ([1]; 10 mg OCA) was 0.813 g/cm^2. For the same compound, the “Femoral Neck Scan: Bone Mineral Density, Result, Median” value ([1]; 10 mg OCA) was 0.779 g/cm^2, the “Femoral Neck Scan: T-Score, Change From Baseline, Mean” value ([1]; 10 mg OCA) was −0.11 and the “Femoral Neck Scan: T-Score, Change From Baseline, Median” value ([1]; 10 mg OCA) was −0.10. For the same compound, the “Femoral Neck Scan: T-Score, Result, Mean” value ([1]; 10 mg OCA) was −1.06, the “Femoral Neck Scan: T-Score, Result, Median” value ([1]; 10 mg OCA) was −1.05 and the “Femoral Neck Scan: Z-Score, Change From Baseline, Mean” value ([1]; 10 mg OCA) was −0.06. The “Femoral Neck Scan: Z-Score, Change From Baseline, Median” value ([1]; 10 mg OCA) was 0.00, the “Femoral Neck Scan: Z-Score, Result, Mean” value ([1]; 10 mg OCA) was −0.01 and the “Femoral Neck Scan: Z-Score, Result, Median” value ([1]; 10 mg OCA) was −0.10. The “Femoral Neck Scan: Bone Mineral Density, Change From Baseline, LS Mean” value ([1]; 10 mg OCA) was −0.04 g/cm^2, the “Femoral Neck Scan: Bone Mineral Density, Change From Baseline, OCA - Placebo mean difference” value ([1]; 10 mg OCA) was −0.02 g/cm^2 and the “Femoral Neck Scan: T-Score, Change From Baseline, LS Mean” value ([1]; 10 mg OCA) was −0.07. For the same compound, the “Femoral Neck Scan: T-Score, Change From Baseline, OCA - Placebo mean difference” value ([1]; 10 mg OCA) was 0.26, the “Femoral Neck Scan: Z-Score, Change From Baseline, LS Mean” value ([1]; 10 mg OCA) was −0.07 and the “Femoral Neck Scan: Z-Score, Change From Baseline, OCA - Placebo mean difference” value ([1]; 10 mg OCA) was 0.05. The “Femoral Neck Scan: Bone Mineral Density, Change From Baseline, Mean” value [1, 3] was −0.003 g/cm^2, the “Femoral Neck Scan: Bone Mineral Density, Change From Baseline, Median” value [1, 3] was −0.004 g/cm^2 and the “Femoral Neck Scan: Bone Mineral Density, Result, Mean” value [1, 3] was 0.809 g/cm^2. For the same compound, the “Femoral Neck Scan: Bone Mineral Density, Result, Median” value [1, 3] was 0.822 g/cm^2, the “Femoral Neck Scan: T-Score, Change From Baseline, Mean” value [1, 3] was −0.03 and the “Femoral Neck Scan: T-Score, Change From Baseline, Median” value [1, 3] was −0.05. The “Femoral Neck Scan: T-Score, Result, Mean” value [1, 3] was −1.28, the “Femoral Neck Scan: T-Score, Result, Median” value [1, 3] was −1.45 and the “Femoral Neck Scan: Z-Score, Change From Baseline, Mean” value [1, 3] was 0.01. For the same compound, the “Femoral Neck Scan: Z-Score, Change From Baseline, Median” value [1, 3] was 0.00, the “Femoral Neck Scan: Z-Score, Result, Mean” value [1, 3] was −0.23 and the “Femoral Neck Scan: Z-Score, Result, Median” value [1, 3] was −0.45. The “Femoral Neck Scan: Bone Mineral Density, Change From Baseline, LS Mean” value [1, 3] was −0.01 g/cm^2, the “Femoral Neck Scan: Bone Mineral Density, Change From Baseline, OCA - Placebo mean difference” value [1, 3] was 0.01 g/cm^2 and the “Femoral Neck Scan: T-Score, Change From Baseline, LS Mean” value [1, 3] was −0.06. For the same compound, the “Femoral Neck Scan: T-Score, Change From Baseline, OCA - Placebo mean difference” value [1, 3] was 0.27, the “Femoral Neck Scan: Z-Score, Change From Baseline, LS Mean” value [1, 3] was −0.01 and the “Femoral Neck Scan: Z-Score, Change From Baseline, OCA - Placebo mean difference” value [1, 3] was 0.10. For the same compound, the “decrease in femoral bone mineral density T-score versus placebo” value ([1]; both OCA groups, Baseline to Month 12, subjects with PBC, p<0.05) was “smaller decrease”, the “Lumbar Spine Scan: Bone Mineral Density, Change From Baseline, Mean” value ([2]; 10 mg OCA) was −0.012 g/cm^2 and the “Lumbar Spine Scan: Bone Mineral Density, Change From Baseline, Median” value ([2]; 10 mg OCA) was −0.013 g/cm^2. For the same compound, the “Lumbar Spine Scan: Bone Mineral Density, Result, Mean” value ([2]; 10 mg OCA) was 1.003 g/cm^2, the “Lumbar Spine Scan: Bone Mineral Density, Result, Median” value ([2]; 10 mg OCA) was 0.976 g/cm^2 and the “Lumbar Spine Scan: T-Score, Change From Baseline, Mean” value ([2]; 10 mg OCA) was −0.17. The “Lumbar Spine Scan: T-Score, Change From Baseline, Median” value ([2]; 10 mg OCA) was −0.10, the “Lumbar Spine Scan: T-Score, Result, Mean” value ([2]; 10 mg OCA) was −1.02 and the “Lumbar Spine Scan: T-Score, Result, Median” value ([2]; 10 mg OCA) was −1.20. The “Lumbar Spine Scan: Z-Score, Change From Baseline, Mean” value ([2]; 10 mg OCA) was −0.03, the “Lumbar Spine Scan: Z-Score, Change From Baseline, Median” value ([2]; 10 mg OCA) was 0.00 and the “Lumbar Spine Scan: Z-Score, Result, Mean” value ([2]; 10 mg OCA) was 0.01. For the same compound, the “Lumbar Spine Scan: Z-Score, Result, Median” value ([2]; 10 mg OCA) was 0.00, the “Lumbar Spine Scan: Bone Mineral Density, Change From Baseline, LS Mean” value ([2]; 10 mg OCA) was −0.01 g/cm^2 and the “Lumbar Spine Scan: Bone Mineral Density, Change From Baseline, OCA - Placebo mean difference” value ([2]; 10 mg OCA) was 0.00 g/cm^2. The “Lumbar Spine Scan: T-Score, Change From Baseline, LS Mean” value ([2]; 10 mg OCA) was −0.09, the “Lumbar Spine Scan: T-Score, Change From Baseline, OCA - Placebo mean difference” value ([2]; 10 mg OCA) was 0.16 and the “Lumbar Spine Scan: Z-Score, Change From Baseline, LS Mean” value ([2]; 10 mg OCA) was −0.03. For the same compound, the “Lumbar Spine Scan: Z-Score, Change From Baseline, OCA - Placebo mean difference” value ([2]; 10 mg OCA) was −0.05, the “Lumbar Spine Scan: Bone Mineral Density, Change From Baseline, Mean” value [2, 3] was −0.014 g/cm^2 and the “Lumbar Spine Scan: Bone Mineral Density, Change From Baseline, Median” value [2, 3] was −0.007 g/cm^2. The “Lumbar Spine Scan: Bone Mineral Density, Result, Mean” value [2, 3] was 1.013 g/cm^2, the “Lumbar Spine Scan: Bone Mineral Density, Result, Median” value [2, 3] was 0.994 g/cm^2 and the “Lumbar Spine Scan: T-Score, Change From Baseline, Mean” value [2, 3] was −0.06. For the same compound, the “Lumbar Spine Scan: T-Score, Change From Baseline, Median” value [2, 3] was 0.00, the “Lumbar Spine Scan: T-Score, Result, Mean” value [2, 3] was −1.10 and the “Lumbar Spine Scan: T-Score, Result, Median” value [2, 3] was −1.35. For the same compound, the “Lumbar Spine Scan: Z-Score, Change From Baseline, Mean” value [2, 3] was 0.00, the “Lumbar Spine Scan: Z-Score, Change From Baseline, Median” value [2, 3] was 0.00 and the “Lumbar Spine Scan: Z-Score, Result, Mean” value [2, 3] was 0.02. For the same compound, the “Lumbar Spine Scan: Z-Score, Result, Median” value [2, 3] was −0.20, the “Lumbar Spine Scan: Bone Mineral Density, Change From Baseline, LS Mean” value [2, 3] was −0.01 g/cm^2 and the “Lumbar Spine Scan: Bone Mineral Density, Change From Baseline, OCA - Placebo mean difference” value [2, 3] was −0.01 g/cm^2. For the same compound, the “Lumbar Spine Scan: T-Score, Change From Baseline, LS Mean” value [2, 3] was −0.01, the “Lumbar Spine Scan: T-Score, Change From Baseline, OCA - Placebo mean difference” value [2, 3] was 0.25 and the “Lumbar Spine Scan: Z-Score, Change From Baseline, LS Mean” value [2, 3] was 0.00. For the same compound, the “Lumbar Spine Scan: Z-Score, Change From Baseline, OCA - Placebo mean difference” value [2, 3] was −0.01 and the “Lumbar bone mineral density change, OCA groups versus placebo” value ([2]; both OCA groups, Baseline to Month 12, subjects with PBC) was “No significant difference; also recorded: not significant”.
